Reference: US20140234868A1, “USE FOR GLYCOLIPOPROTEIN GINTONIN, ISOLATED AND IDENTIFIED FROM GINSENG, AS A NATURAL MEDICAL-PLANT DERIVED LIGAND” (KONKUK UNIVERSITY INDUSTRIAL COOPERATION CORP., priority 2011, published 2014)

Columns and labels:
endogenous CaCC = experiment: Endogenous Ca2+-activated channel (CaCC) activation in Xenopus oocytes; format: cell-based, Xenopus laevis
BKCaK+ channels = experiment: BKCa K+ channel activity in Xenopus oocytes, two-electrode voltage clamp; format: cell-based
Outline: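 Two-electrode voltage clamp was performed at room temperature on stage V-VI Xenopus oocytes. Oocytes were perfused with Cl−/Ca2+-free solution, pH 7.4, containing 500 μM anthracene-9-carboxylic acid. Outward currents were recorded on 400 ms steps from −80 mV holding to +40 mV.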

[1] = tested on: NMDA receptors (NR1 and NR2); experiment: NMDA receptor activity in Xenopus oocytes, two-electrode voltage clamp; format: cell-based
Outline: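 Xenopus oocytes injected with NR1 and NR2 cDNA (100 ng/40 nl) and kept 4-5 days at 18 °C in ND96. Two-electrode voltage clamp at −60 mV in Mg2+-free ND96, pH 7.6. Currents evoked by […].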

[2] = Kil6425 10 μM, U73122 1 μM, 2-APB 100 μM, BAPTA 100 μM 3 h

Molecule | effect on gintonin-induced CaCC activation (endogenous CaCC; [2]) | effect on gintonin-induced BKCaK+ channel activation (BKCaK+ channels; Kil6425 10 μM, U73122, U73343 1 μM, 2-APB 100 μM, BAPTA-AM, PMA 1 μM) | effect on NMDA-induced inward current [1, 2] | effect on gintonin-induced NMDA receptor activation ([1]; gintonin 1 μg/ml, Kil6425 10 μM, U73122, U73343 1 μM, 2-APB 100 μM, BAPTA 100 μM 3 h, genistein 10 μM, PP2, PP3 30 μM) | CaCC activation (endogenous CaCC; gintonin 1 μg/ml, NMDA receptor-expressing Xenopus oocytes) | ED50, BKCaK+ channel activation (BKCaK+ channels; BKCaK+ channels expressed in Xenopus oocytes) | BKCa channel activity on repetitive treatment (desensitization) (BKCaK+ channels; repetitive treatments, data not shown) | ED50, NMDA receptor-mediated inward currents ([1]; NMDA receptor-expressing Xenopus oocytes)
Cc1noc(-c2ccc(CSCCC(=O)O)cc2)c1NC(=O)OC(C)c1ccccc1Cl (centres unmarked) [Kil6425] | reduced gintonin-induced CaCC activation | reduced the gintonin-induced activation of BKCaK^+ channels | had no influences on NMDA-NMDA receptor activation | blocked gintonin-induced NMDA receptor activation | – | – | – | –
gintonin: ginseng-derived glycolipoprotein; structural protein of ginseng major latex-like protein (MLP151) and ribonuclease-like storage proteins; crude gintonin used in tests (protein) chain 1: MGLTGKLICQTGIKSDGDVFHELFGTRPHHVPNITPANIQGCDLHEGEFGKVGSVVIWNYSIDGNAMIAKEEIVAIDEEDKSVTFKVVEGHLFEEFKSIVFSVHVDTKGEDNLVTWSIDYEKLNESVKDPTSYLDFLLSVTRDIEAHHLPK chain 2: RSDYPWAMFALRLQWPAGFCEVNNACDTKSLLNTFTIHGLYPYNAKGTPALYCDGTAFDVNSVSDFLAEMHLAWPSHETNTEDIQFWEHEWKKHGRCSEALLKQTDYFRTALAFRKAFDIVGLLNQEGIYPNNDLYRPKMIKEAIKKHLNAVPEIDFTKNENSEYVLTDINVCVNQQATRFVDCPTDDATDDYRLKFVRLPSKMKFADPRTNSII | – | – | – | – | increases CaCC | 0.71 ± 0.08 µg/mL | Repetitive treatments of gintonin reduced BKa channel activity | 0.49 ± 0.10 µg/mL
